Results published in patent US11673910B2, “Macrolides with modified desosamine sugars and uses thereof” (Zikani Therapeutics, Inc., priority 2017, dated 2023).
Converted amounts (≈) assume the structure as drawn.

Tests used:
Assay type in all cases: cell-based
[1] = test system: P. aeruginosa strain MP-3; test: Broth dilution MIC determination (CLSI) against P. aeruginosa strain MP-3; conditions: Pseudomonas aeruginosa, MP3
Summary of the method: (§1)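 Growth inhibition endpoint determined under CLSI broth dilution conditions. Categorical MIC output in mg/L: +++ (≤4), ++ (≥8, <32), + (≥32).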

S. aureus strain MP-12 = test: Broth dilution MIC determination (CLSI) against S. aureus strain MP-12; conditions: for MIC: Staphylococcus aureus, MP12, strain MP-12
Summary of the method: as §1

[2] = test system: K. pneumoniae strain MP-548; test: Broth dilution MIC determination (CLSI) against K. pneumoniae strain MP-548; conditions: Klebsiella pneumoniae, MP548
Summary of the method: as §1

E. coli strain MP-4 = test: Broth dilution MIC determination (CLSI) against E. coli strain MP-4; conditions: Escherichia coli, MP4
Summary of the method: as §1

[3] = test system: A. baumannii strain MP-15; test: Broth dilution MIC determination (CLSI) against A. baumannii strain MP-15; conditions: Acinetobacter baumannii, MP15
Summary of the method: as §1

Row | SMILES | MIC [1] | MIC (S. aureus strain MP-12) | MIC [2] | MIC (E. coli strain MP-4) | MIC [3] | MIC against S. aureus (MP-12) (S. aureus strain MP-12; strain MP-12)
1 | CC[C@H]1OC(=O)C(C)C(=O)[C@H](C)[C@@H](OC2OC(CNCCC(F)(F)F)CC(N(C)C)C2O)[C@](C)(OC)C[C@@H](C)CN[C@H](C)[C@H]2NC(=O)O[C@@]21C (some centres unmarked) [Compound 142, 3-Descladinosyl-3-oxo-6-O-methyl-N9a-desmethyl-11,12-dideoxy-12,11-(oxycarbonylimino)-6′-trifluoropropylamino Azithromycin] | ≥ 32 µg/mL | 8 to 32 µg/mL (≈ 11 to 44.1 µM) | 8 to 32 µg/mL (≈ 11 to 44.1 µM) | ≤ 4 µg/mL | ≥ 32 µg/mL | –
2 | CC[C@H]1OC(=O)C(C)C(=O)[C@H](C)[C@@H](OC2OC(CNC)CC(N(C)C)C2O)[C@](C)(OC)C[C@@H](C)CN[C@H](C)[C@H]2NC(=O)O[C@@]21C (some centres unmarked) [Compound 106, 3-Descladinosyl-3-oxo-6-O-methyl-N9a-desmethyl-11,12-dideoxy-12,11-(oxycarbonylimino)-6′-methylamino Azithromycin] | ≥ 32 µg/mL | ≥ 32 µg/mL | ≥ 32 µg/mL | 8 to 32 µg/mL (≈ 12.4 to 49.8 µM) | ≥ 32 µg/mL | –
3 | CC[C@H]1OC(=O)C(C)C(=O)[C@H](C)[C@@H](O[C@@H]2OC(CNc3ccc4ncncc4c3)CC(N(C)C)C2O)[C@](C)(OC)C[C@@H](C)CN[C@H](C)[C@H]2NC(=O)O[C@@]21C (some centres unmarked) [Compound 27] | ≥ 32 µg/mL | ≥ 32 µg/mL | ≥ 32 µg/mL | 8 to 32 µg/mL (≈ 10.6 to 42.3 µM) | ≥ 32 µg/mL | –
4 | CC[C@H]1OC(=O)C(C)C(=O)[C@H](C)[C@@H](O[C@@H]2OC(CNc3ccc(C#N)cc3)CC(N(C)C)C2O)[C@](C)(OC)C[C@@H](C)CN[C@H](C)[C@H]2NC(=O)O[C@@]21C (some centres unmarked) [Compound 50] | ≥ 32 µg/mL | ≥ 32 µg/mL | ≥ 32 µg/mL | 8 to 32 µg/mL (≈ 11 to 43.8 µM) | ≥ 32 µg/mL | –
5 | CC[C@H]1OC(=O)C(C)C(=O)[C@H](C)[C@@H](OC2OC(CN3CCN(C(C)=O)CC3)CC(N(C)C)C2O)[C@](C)(OC)C[C@@H](C)CN[C@H](C)[C@H]2NC(=O)O[C@@]21C (some centres unmarked) [Compound 125, 3-Descladinosyl-3-oxo-6-O-methyl-N9a-desmethyl-11,12-dideoxy-12,11-(oxycarbonylimino)-6′-(1-(4-acetyl)-piperazinyl) Azithromycin] | ≥ 32 µg/mL | ≥ 32 µg/mL | ≥ 32 µg/mL | ≥ 32 µg/mL | ≥ 32 µg/mL | –
6 | CC[C@H]1OC(=O)[C@@]2(C)CCOC(C)(C[C@@H](C)CN(C)[C@H](C)[C@H]3NC(=O)O[C@@]31C)[C@H](O[C@@H]1O[C@H](CNC3CC3)C[C@H](N(C)C)[C@H]1O)[C@@H](C)C2=O [Compound 208] | ≥ 32 µg/mL | ≤ 4 µg/mL | ≤ 4 µg/mL | ≤ 4 µg/mL | 8 to 32 µg/mL (≈ 11.5 to 46 µM) | –
7 | CC[C@H]1OC(=O)[C@]2(C)CCOC(C)(C[C@@H](C)CN[C@H](C)[C@H]3NC(=O)O[C@@]31C)[C@H](O[C@@H]1O[C@H](CNC34CC(C3)C4)C[C@H](N(C)C)[C@H]1O)[C@@H](C)C2=O [Compound 212] | ≥ 32 µg/mL | – | 8 to 32 µg/mL (≈ 11.3 to 45.3 µM) | ≤ 4 µg/mL | 8 to 32 µg/mL (≈ 11.3 to 45.3 µM) | +++ (values less than or equal to 4 mg/L)
8 | CC[C@H]1OC(=O)C(C)C(=O)[C@H](C)[C@@H](OC2OC(CN3CC(O)C3)CC(N(C)C)C2O)[C@](C)(OC)C[C@@H](C)CN[C@H](C)[C@H]2NC(=O)O[C@@]21C (some centres unmarked) [Compound 128, 3-Descladinosyl-3-oxo-6-O-methyl-N9a-desmethyl-11,12-dideoxy-12,11-(oxycarbonylimino)-6′-(3-hydroxy-1-azetidinyl) Azithromycin] | ≥ 32 µg/mL | ≥ 32 µg/mL | ≥ 32 µg/mL | ≥ 32 µg/mL | ≥ 32 µg/mL | –
9 | CC[C@H]1OC(=O)C(C)C(=O)[C@H](C)[C@@H](O[C@@H]2O[C@H](CCC3CC3)CC(N(C)C)[C@H]2O)[C@](C)(OC)C[C@@H](C)CN[C@H](C)[C@H]2NC(=O)O[C@@]21C (some centres unmarked) [Compound 185, 3-Descladinosyl-3-oxo-6-O-methyl-N9a-desmethyl-11,12-dideoxy-12,11-(oxycarbonylimino)-6′-cyclopropylmethyl Azithromycin] | ≥ 32 µg/mL | 8 to 32 µg/mL (≈ 12 to 47.9 µM) | ≥ 32 µg/mL | 8 to 32 µg/mL (≈ 12 to 47.9 µM) | 8 to 32 µg/mL (≈ 12 to 47.9 µM) | –
10 | CC[C@H]1OC(=O)C(C)C(=O)[C@H](C)[C@@H](OC2OC(CN3CCOCC3)CC(N(C)C)C2O)[C@](C)(OC)C[C@@H](C)CN[C@H](C)[C@H]2NC(=O)O[C@@]21C (some centres unmarked) [Compound 132, 3-Descladinosyl-3-oxo-6-O-methyl-N9a-desmethyl-11,12-dideoxy-12,11-(oxycarbonylimino)-6′-(1-morpholino) Azithromycin] | ≥ 32 µg/mL | 8 to 32 µg/mL (≈ 11.4 to 45.8 µM) | 8 to 32 µg/mL (≈ 11.4 to 45.8 µM) | ≤ 4 µg/mL | ≥ 32 µg/mL | –
11 | CC[C@H]1OC(=O)C(C)C(=O)[C@H](C)[C@@H](OC2OC(CNC(C)(C)C)CC(N(C)C)C2O)[C@](C)(OC)C[C@@H](C)CN[C@H](C)[C@H]2NC(=O)O[C@@]21C (some centres unmarked) [Compound 110, 3-Descladinosyl-3-oxo-6-O-methyl-N9a-desmethyl-11,12-dideoxy-12,11-(oxycarbonylimino)-6′-tert-butylamino Azithromycin] | ≥ 32 µg/mL | ≥ 32 µg/mL | 8 to 32 µg/mL (≈ 11.7 to 46.7 µM) | ≤ 4 µg/mL | ≥ 32 µg/mL | –
12 | CC[C@H]1OC(=O)C(C)C(=O)[C@H](C)[C@@H](O[C@@H]2O[C@H](CCC(C)C)CC(N(C)C)[C@H]2O)[C@](C)(OC)C[C@@H](C)CN[C@H](C)[C@H]2NC(=O)O[C@@]21C (some centres unmarked) [Compound 183, 3-Descladinosyl-3-oxo-6-O-methyl-N9a-desmethyl-11,12-dideoxy-12,11-(oxycarbonylimino)-6′-isobutyl Azithromycin] | ≥ 32 µg/mL | 8 to 32 µg/mL (≈ 11.9 to 47.8 µM) | ≥ 32 µg/mL | 8 to 32 µg/mL (≈ 11.9 to 47.8 µM) | 8 to 32 µg/mL (≈ 11.9 to 47.8 µM) | –
13 | CC[C@H]1OC(=O)[C@]2(C)CCC(=O)CO[C@](C)(C[C@@H](C)CN[C@H](C)[C@H]3NC(=O)O[C@@]31C)[C@H](OC1OC(C)CC(N(C)C)C1O)[C@@H](C)C2=O (some centres unmarked) [Compound 226] | ≥ 32 µg/mL | ≥ 32 µg/mL | ≥ 32 µg/mL | ≥ 32 µg/mL | ≥ 32 µg/mL | –
14 | CC[C@H]1OC(=O)[C@]2(C)CC/C(=N\O)CO[C@](C)(C[C@@H](C)CN[C@H](C)[C@H]3NC(=O)O[C@@]31C)[C@H](OC1OC(C)CC(N(C)C)C1O)[C@@H](C)C2=O (some centres unmarked) [Compound 228] | ≥ 32 µg/mL | ≥ 32 µg/mL | ≥ 32 µg/mL | ≥ 32 µg/mL | ≥ 32 µg/mL | –
15 | CC[C@H]1OC(=O)C(C)C(=O)[C@H](C)[C@@H](OC2OC(CN3CC(F)(F)C3)CC(N(C)C)C2O)[C@](C)(OC)C[C@@H](C)CN[C@H](C)[C@H]2NC(=O)O[C@@]21C (some centres unmarked) [Compound 139, 3-Descladinosyl-3-oxo-6-O-methyl-N9a-desmethyl-11,12-dideoxy-12,11-(oxycarbonylimino)-6′-(3″,3″-difluoroazetidinyl) Azithromycin] | ≥ 32 µg/mL | 8 to 32 µg/mL (≈ 11.3 to 45.4 µM) | 8 to 32 µg/mL (≈ 11.3 to 45.4 µM) | ≤ 4 µg/mL | 8 to 32 µg/mL (≈ 11.3 to 45.4 µM) | –
16 | CC[C@H]1OC(=O)C(C)C(=O)[C@H](C)[C@@H](O[C@@H]2OC(CN[C@H](C)c3ccc(F)cc3)CC(N(C)C)C2O)[C@](C)(OC)C[C@@H](C)CN[C@H](C)[C@H]2NC(=O)O[C@@]21C (some centres unmarked) [Compound 33] | ≥ 32 µg/mL | ≥ 32 µg/mL | ≥ 32 µg/mL | ≤ 4 µg/mL | ≥ 32 µg/mL | –
17 | CC[C@H]1OC(=O)C(C)C(=O)[C@H](C)[C@@H](O[C@@H]2O[C@H](C(C)N(CC3CC3)CC3CC3)CC(N(C)C)[C@H]2O)[C@](C)(OC)C[C@@H](C)CN[C@H](C)[C@H]2NC(=O)O[C@@]21C (stereo partly drawn) [Compound 177, 3-Descladinosyl-3-oxo-6-O-methyl-N9a-desmethyl-11,12-dideoxy-12,11-(oxycarbonylimino)-6′-((R,S)-(dicyclopropylmethylamino)ethyl) Azithromycin] | ≥ 32 µg/mL | ≥ 32 µg/mL | ≥ 32 µg/mL | 8 to 32 µg/mL (≈ 10.7 to 42.6 µM) | ≥ 32 µg/mL | –
18 | CO[C@]1(C)C[C@@H](C)CN[C@H](C)[C@H]2NC(=O)O[C@]2(C)[C@@H](C)OC(=O)C(C)C(=O)[C@H](C)[C@H]1OC1OC(CNC2CCC2)CC(N(C)C)C1O (some centres unmarked) [Compound 147, 3-Descladinosyl-3-oxo-6-O-methyl-N9a-desmethyl-11,12-dideoxy-12,11-(oxycarbonylimino)-6′-cyclobutylamino-13-methyl Azithromycin] | ≥ 32 µg/mL | ≥ 32 µg/mL | ≥ 32 µg/mL | 8 to 32 µg/mL (≈ 12 to 47.8 µM) | ≥ 32 µg/mL | –
19 | CC[C@H]1OC(=O)C(C)C(=O)[C@H](C)[C@@H](O[C@@H]2OC(CNc3cccnc3)CC(N(C)C)C2O)[C@](C)(OC)C[C@@H](C)CN[C@H](C)[C@H]2NC(=O)O[C@@]21C (some centres unmarked) [Compound 52] | ≥ 32 µg/mL | ≥ 32 µg/mL | 8 to 32 µg/mL (≈ 11.3 to 45.3 µM) | ≤ 4 µg/mL | ≥ 32 µg/mL | –
20 | CCCCCCCCNCC1CC(N(C)C)C(O)[C@H](O[C@@H]2[C@@H](C)C(=O)C(C)C(=O)O[C@H](CC)[C@@]3(C)OC(=O)N[C@@H]3[C@@H](C)NC[C@H](C)C[C@@]2(C)OC)O1 (some centres unmarked) [Compound 54] | ≥ 32 µg/mL | ≥ 32 µg/mL | ≥ 32 µg/mL | 8 to 32 µg/mL (≈ 10.8 to 43.2 µM) | ≥ 32 µg/mL | –
21 | CC[C@H]1OC(=O)C(C)C(=O)[C@H](C)[C@@H](OC2OC(CCNC3CC3)CC(N(C)C)C2O)[C@](C)(OC)C[C@@H](C)CN[C@H](C)[C@H]2NC(=O)O[C@@]21C (some centres unmarked) [Compound 187, 3-Descladinosyl-3-oxo-6-O-methyl-N9a-desmethyl-11,12-dideoxy-12,11-(oxycarbonylimino)-5′-desmethyl-5′-(2-(aminocyclopropyl)ethyl) Azithromycin] | ≥ 32 µg/mL | ≥ 32 µg/mL | ≤ 4 µg/mL | ≤ 4 µg/mL | ≥ 32 µg/mL | –
22 | CC[C@H]1OC(=O)[C@@]2(C)CCO[C@](C)(C[C@@H](C)CN[C@H](C)[C@H]3NC(=O)O[C@@]31C)[C@H](O[C@@H]1O[C@H](CNCc3cccnc3)C[C@H](N(C)C)[C@H]1O)[C@@H](C)C2=O [Compound 201] | ≥ 32 µg/mL | ≥ 32 µg/mL | ≥ 32 µg/mL | ≥ 32 µg/mL | ≥ 32 µg/mL | –
